Laboratory results taken from ChEMBL document CHEMBL5291721, “A preclinical secondary pharmacology resource illuminates target-adverse drug reaction associations of marketed drugs” (Nat Commun, 2023).

Key:
[1] = target: Synaptic vesicular amine transporter (Rattus norvegicus, UniProt Q01827); format: functional
[2] = target: Acetylcholinesterase (Homo sapiens, UniProt P22303); format: functional
[3] = target: D(1A) dopamine receptor (Homo sapiens, UniProt P21728)
[4] = target: Substance-P receptor (Homo sapiens, UniProt P25103)
[5] = target: T1, Gastric inhibitory polypeptide receptor (Homo sapiens, UniProt P48546)
T1 sequence (P48546 whole entry): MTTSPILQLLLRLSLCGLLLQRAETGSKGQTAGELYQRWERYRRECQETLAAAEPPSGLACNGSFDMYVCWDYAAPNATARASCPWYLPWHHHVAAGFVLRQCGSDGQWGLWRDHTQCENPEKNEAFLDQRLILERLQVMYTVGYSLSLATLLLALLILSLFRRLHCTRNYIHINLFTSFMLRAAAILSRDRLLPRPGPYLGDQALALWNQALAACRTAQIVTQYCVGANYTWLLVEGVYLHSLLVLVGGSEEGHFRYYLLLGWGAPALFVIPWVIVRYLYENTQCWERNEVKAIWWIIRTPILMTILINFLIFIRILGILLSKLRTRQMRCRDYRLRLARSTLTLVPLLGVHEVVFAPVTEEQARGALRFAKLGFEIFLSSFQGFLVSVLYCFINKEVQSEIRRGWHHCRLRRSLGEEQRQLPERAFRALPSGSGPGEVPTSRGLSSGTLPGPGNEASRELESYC

[6] = target: T2, Thromboxane A2 receptor (Homo sapiens, UniProt P21731); format: functional, cell-based
T2 sequence (P21731 whole entry): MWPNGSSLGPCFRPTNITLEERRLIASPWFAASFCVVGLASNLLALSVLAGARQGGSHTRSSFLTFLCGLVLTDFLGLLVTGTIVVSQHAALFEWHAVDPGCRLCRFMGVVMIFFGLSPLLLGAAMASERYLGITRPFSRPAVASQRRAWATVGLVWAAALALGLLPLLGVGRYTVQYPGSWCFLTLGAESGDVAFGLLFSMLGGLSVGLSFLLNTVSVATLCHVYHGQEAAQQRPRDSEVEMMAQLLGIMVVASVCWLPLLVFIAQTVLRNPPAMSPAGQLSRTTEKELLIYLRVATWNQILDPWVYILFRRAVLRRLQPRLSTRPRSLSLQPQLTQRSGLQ

[7] = target: Estrogen receptor beta (Homo sapiens, UniProt Q92731)
[8] = target: T3, 5-hydroxytryptamine receptor 1A (Homo sapiens, UniProt P08908)
T3 sequence (P08908 whole entry): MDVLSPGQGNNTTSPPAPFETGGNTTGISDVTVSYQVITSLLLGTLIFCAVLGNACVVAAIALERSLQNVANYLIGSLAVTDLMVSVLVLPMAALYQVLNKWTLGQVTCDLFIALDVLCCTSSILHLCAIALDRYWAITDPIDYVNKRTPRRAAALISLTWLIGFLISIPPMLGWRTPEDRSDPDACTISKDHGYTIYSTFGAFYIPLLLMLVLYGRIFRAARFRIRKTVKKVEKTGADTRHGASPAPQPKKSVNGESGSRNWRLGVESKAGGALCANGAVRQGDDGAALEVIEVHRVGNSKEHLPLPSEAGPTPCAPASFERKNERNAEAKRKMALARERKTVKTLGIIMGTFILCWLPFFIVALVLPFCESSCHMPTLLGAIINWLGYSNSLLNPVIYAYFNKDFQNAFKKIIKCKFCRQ

[9] = target: T4, Corticotropin-releasing factor receptor 2 (Homo sapiens, UniProt Q13324)
T4 sequence (Q13324 whole entry): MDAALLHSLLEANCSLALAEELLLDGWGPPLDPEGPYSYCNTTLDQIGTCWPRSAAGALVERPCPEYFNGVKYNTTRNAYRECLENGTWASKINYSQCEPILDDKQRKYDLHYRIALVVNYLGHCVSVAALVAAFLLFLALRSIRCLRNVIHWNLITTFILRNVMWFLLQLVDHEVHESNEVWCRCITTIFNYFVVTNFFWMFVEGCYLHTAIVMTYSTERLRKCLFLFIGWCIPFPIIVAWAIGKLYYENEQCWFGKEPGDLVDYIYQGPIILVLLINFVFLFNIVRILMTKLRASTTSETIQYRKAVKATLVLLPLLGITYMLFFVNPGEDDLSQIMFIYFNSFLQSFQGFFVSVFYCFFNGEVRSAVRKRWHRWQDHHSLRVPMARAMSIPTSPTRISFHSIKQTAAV

[10] = target: Voltage-dependent N-type calcium channel subunit alpha-1B (Rattus norvegicus, UniProt Q02294); format: functional
[11] = target: Histamine H1 receptor (Homo sapiens, UniProt P35367); format: functional, cell-based
[12] = target: T5, Muscarinic acetylcholine receptor M1 (Homo sapiens, UniProt P11229)
T5 sequence (P11229 whole entry): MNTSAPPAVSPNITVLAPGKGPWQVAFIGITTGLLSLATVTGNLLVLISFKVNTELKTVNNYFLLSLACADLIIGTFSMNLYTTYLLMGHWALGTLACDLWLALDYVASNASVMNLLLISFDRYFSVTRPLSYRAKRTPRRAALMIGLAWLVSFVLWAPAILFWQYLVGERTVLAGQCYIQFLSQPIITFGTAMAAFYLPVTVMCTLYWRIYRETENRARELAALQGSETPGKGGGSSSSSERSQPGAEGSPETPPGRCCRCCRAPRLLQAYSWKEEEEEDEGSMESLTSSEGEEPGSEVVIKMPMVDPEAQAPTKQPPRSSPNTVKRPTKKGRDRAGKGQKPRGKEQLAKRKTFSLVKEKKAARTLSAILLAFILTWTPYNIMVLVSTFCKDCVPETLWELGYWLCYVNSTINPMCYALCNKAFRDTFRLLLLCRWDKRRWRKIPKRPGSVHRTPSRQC

[13] = target: Cannabinoid receptor 1 (Homo sapiens, UniProt P21554); format: functional
Note: assay procedure not described here.

Acetylcholinesterase, sequence (P22303 whole entry): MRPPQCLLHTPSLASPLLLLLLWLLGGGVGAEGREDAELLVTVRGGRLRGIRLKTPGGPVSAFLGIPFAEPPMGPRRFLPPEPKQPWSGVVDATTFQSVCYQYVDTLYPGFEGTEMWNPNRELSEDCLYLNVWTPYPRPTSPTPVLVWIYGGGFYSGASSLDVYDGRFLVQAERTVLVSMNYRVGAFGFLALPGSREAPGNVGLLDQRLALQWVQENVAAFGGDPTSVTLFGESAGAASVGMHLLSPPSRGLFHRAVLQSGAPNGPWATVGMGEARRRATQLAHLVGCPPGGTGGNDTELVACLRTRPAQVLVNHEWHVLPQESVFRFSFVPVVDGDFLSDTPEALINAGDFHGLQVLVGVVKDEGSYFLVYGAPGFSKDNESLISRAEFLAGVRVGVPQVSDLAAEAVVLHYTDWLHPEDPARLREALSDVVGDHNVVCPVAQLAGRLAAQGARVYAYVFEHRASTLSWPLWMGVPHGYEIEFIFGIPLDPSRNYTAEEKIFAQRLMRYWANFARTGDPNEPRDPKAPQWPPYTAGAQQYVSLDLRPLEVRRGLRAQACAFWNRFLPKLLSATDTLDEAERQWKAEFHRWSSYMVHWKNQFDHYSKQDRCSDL
Substance-P receptor, sequence (P25103 whole entry): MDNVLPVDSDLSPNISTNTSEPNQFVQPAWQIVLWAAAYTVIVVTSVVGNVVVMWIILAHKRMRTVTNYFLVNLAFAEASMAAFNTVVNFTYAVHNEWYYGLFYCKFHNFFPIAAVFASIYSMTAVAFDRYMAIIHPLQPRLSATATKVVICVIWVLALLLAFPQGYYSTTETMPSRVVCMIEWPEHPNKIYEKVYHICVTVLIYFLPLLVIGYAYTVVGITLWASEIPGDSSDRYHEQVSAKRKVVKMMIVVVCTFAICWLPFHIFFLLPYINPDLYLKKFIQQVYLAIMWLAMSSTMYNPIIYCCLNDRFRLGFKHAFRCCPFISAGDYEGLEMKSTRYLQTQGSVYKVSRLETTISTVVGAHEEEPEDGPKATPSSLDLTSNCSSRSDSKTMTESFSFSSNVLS
Voltage-dependent N-type calcium channel subunit alpha-1B, sequence (Q02294 whole entry): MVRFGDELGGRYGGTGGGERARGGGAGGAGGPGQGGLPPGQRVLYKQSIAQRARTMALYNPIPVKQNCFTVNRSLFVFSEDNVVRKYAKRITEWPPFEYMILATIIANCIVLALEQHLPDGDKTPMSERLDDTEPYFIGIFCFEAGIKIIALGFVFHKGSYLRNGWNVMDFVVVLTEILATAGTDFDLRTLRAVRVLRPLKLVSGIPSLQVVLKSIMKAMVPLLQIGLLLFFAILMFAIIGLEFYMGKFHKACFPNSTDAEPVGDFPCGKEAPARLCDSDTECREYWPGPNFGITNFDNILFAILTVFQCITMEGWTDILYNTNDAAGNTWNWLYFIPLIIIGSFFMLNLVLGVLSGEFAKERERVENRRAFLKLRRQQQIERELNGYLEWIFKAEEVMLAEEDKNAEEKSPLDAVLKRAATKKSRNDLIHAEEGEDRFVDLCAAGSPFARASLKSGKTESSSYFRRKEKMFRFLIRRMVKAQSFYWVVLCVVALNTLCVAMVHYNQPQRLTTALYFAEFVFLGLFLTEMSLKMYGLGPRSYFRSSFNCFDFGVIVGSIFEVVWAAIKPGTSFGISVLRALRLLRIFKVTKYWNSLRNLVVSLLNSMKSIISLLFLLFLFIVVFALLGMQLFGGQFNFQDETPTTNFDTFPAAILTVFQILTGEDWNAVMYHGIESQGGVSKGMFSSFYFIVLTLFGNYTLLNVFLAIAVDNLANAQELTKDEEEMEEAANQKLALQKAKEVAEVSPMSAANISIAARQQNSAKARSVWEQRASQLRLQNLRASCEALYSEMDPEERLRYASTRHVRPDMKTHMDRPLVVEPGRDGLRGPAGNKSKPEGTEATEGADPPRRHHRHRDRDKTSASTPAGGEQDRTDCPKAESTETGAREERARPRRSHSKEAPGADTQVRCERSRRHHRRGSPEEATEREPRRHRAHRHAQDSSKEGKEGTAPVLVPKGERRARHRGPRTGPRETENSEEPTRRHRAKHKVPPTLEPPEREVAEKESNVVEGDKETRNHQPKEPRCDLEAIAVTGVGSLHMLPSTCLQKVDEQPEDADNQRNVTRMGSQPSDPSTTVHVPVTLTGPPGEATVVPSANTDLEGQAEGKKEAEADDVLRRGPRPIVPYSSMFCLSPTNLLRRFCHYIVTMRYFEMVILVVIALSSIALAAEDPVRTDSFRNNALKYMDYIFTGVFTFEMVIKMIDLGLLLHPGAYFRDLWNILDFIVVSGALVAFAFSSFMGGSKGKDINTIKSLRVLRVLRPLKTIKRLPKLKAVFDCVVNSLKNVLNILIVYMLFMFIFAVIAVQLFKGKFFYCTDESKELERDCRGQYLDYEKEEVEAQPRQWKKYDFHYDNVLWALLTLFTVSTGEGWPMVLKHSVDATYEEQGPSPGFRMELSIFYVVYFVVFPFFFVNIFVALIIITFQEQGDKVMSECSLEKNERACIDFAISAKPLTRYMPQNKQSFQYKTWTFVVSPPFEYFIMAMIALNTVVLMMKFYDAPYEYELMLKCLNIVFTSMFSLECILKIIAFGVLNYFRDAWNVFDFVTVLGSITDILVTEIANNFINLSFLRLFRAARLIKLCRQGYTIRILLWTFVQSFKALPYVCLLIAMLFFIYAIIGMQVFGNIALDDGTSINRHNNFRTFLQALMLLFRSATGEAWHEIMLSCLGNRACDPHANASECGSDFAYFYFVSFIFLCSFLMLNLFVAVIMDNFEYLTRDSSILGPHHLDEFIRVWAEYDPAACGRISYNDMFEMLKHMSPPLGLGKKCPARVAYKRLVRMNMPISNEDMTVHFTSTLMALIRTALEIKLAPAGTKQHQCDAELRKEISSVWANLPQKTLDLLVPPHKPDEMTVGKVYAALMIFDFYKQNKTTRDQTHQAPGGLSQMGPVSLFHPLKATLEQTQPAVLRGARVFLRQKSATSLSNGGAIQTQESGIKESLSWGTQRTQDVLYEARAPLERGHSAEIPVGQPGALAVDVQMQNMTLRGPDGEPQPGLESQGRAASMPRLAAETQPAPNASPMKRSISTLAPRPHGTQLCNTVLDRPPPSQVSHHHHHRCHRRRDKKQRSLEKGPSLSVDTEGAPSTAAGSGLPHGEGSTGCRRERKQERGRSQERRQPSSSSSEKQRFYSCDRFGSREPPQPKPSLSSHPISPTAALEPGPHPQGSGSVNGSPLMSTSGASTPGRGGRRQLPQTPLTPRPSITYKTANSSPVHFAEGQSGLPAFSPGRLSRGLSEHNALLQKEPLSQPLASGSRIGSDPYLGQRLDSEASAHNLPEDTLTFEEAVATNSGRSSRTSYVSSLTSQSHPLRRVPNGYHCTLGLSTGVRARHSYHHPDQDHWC
Synaptic vesicular amine transporter, sequence (Q01827 whole entry): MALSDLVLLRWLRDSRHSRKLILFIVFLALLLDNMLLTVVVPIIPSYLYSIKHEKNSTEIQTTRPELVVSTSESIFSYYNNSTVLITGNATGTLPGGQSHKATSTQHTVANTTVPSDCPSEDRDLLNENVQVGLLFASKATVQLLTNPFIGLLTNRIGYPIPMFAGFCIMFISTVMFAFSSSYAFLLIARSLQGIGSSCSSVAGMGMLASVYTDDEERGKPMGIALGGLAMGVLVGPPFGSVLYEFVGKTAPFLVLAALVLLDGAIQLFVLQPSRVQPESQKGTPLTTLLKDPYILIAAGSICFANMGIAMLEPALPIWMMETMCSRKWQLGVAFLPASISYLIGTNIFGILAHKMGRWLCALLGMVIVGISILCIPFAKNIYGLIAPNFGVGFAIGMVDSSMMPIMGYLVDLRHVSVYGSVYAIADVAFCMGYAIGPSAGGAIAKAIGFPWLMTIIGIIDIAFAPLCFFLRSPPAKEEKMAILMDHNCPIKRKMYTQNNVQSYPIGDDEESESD
D(1A) dopamine receptor, sequence (P21728 whole entry): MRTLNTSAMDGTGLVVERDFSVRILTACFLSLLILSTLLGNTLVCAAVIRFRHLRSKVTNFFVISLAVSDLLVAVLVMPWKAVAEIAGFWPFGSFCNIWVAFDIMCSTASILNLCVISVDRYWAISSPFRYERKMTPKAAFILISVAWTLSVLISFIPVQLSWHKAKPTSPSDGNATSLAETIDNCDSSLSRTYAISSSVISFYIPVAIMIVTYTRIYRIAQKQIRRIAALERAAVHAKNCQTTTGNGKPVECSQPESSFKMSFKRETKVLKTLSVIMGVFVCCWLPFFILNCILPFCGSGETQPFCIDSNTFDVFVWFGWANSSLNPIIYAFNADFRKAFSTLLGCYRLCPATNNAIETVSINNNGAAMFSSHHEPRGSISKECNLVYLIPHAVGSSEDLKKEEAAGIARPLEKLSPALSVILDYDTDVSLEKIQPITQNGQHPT
Estrogen receptor beta, sequence (Q92731 whole entry): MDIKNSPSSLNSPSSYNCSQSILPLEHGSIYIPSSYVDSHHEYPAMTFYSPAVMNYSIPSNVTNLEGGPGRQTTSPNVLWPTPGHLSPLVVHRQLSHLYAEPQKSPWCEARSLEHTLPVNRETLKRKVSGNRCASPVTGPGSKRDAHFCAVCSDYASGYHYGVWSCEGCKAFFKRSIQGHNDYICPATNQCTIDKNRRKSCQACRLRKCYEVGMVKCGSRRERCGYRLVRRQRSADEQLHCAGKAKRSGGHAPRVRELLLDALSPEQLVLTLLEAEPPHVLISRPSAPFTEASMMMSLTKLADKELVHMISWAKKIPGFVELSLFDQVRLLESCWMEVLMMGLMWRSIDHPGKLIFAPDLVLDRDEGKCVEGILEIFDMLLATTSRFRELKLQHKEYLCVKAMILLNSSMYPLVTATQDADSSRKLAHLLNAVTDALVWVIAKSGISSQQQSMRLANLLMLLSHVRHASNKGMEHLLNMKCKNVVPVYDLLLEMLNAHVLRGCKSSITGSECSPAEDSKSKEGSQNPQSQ

With `Cc1ccc(C(C)C)c(O)c1` [THYMOL] the AC50 [1] was 25 µM.
`OC[C@H]1NC[C@H](O)[C@@H](O)[C@H]1O` showed an AC50 [1] of over 30 µM.
In the case of `CN1CC2c3ccccc3Oc3ccc(Cl)cc3C2C1` (stereo not drawn) [ASENAPINE], the AC50 [2] is reported as over 30 µM and the AC50 [1] is reported as 1.05 µM.
Compound `CN(C)CCC=C1c2ccccc2CCc2ccccc21` [AMITRIPTYLINE] has an AC50 [3] of 0.452 µM, an AC50 [4] of over 10 µM and an AC50 [5] of over 30 µM. It also gave an AC50 [6] of over 30 µM, an AC50 [7] of over 30 µM and an AC50 [8] of 3.77 µM. The AC50 [9] was over 30 µM and the AC50 [10] was over 10 µM.
Work on `CN(C)CCc1c[nH]c2ccc(CS(=O)(=O)N3CCCC3)cc12` [ALMOTRIPTAN] yielded an AC50 [11] of over 30 µM.
`CC#CC(=O)N1CCC[C@H]1c1nc(-c2ccc(C(=O)Nc3ccccn3)cc2)c2c(N)nccn12` [ACALABRUTINIB] showed an AC50 [12] of over 30 µM.
Work on `CCC[C@@]1(CCc2ccccc2)CC(O)=C([C@H](CC)c2cccc(NS(=O)(=O)c3ccc(C(F)(F)F)cn3)c2)C(=O)O1` yielded an AC50 [2] of over 30 µM.
`O=C1[C@@H]2[C@H]3CC[C@H](C3)[C@@H]2C(=O)N1C[C@@H]1CCCC[C@H]1CN1CCN(c2nsc3ccccc23)CC1` [LURASIDONE] was tested, and the AC50 [2] was 1.3 µM and the AC50 [1] was 0.0699 µM.
For `C[C@]12CCC(=O)C=C1CC[C@H]1[C@@H]3CC[C@](O)(C(=O)CO)[C@@]3(C)C[C@H](O)[C@@]12F` [FLUDROCORTISONE], the AC50 [3] was over 10 µM, the AC50 [5] was over 30 µM and the AC50 [7] was over 30 µM. It also gave an AC50 [8] of over 10 µM, an AC50 [9] of over 30 µM and an AC50 [10] of over 10 µM.
`CC(=O)Oc1ccccc1C(=O)O` [ASPIRIN] gave an AC50 [3] of over 10 µM, an AC50 [4] of over 10 µM and an AC50 [5] of over 30 µM. It also gave an AC50 [6] of over 30 µM, an AC50 [13] of over 10 µM and an AC50 [7] of over 30 µM. The AC50 [8] was over 10 µM, the AC50 [9] was over 30 µM and the AC50 [10] was over 10 µM.
In the case of `C[C@H](CS)C(=O)N1CCC[C@H]1C(=O)O` [CAPTOPRIL], the AC50 [8] is reported as over 10 µM.
Work on `O=C(O)[C@@H](S)[C@@H](S)C(=O)O` yielded an AC50 [12] of over 30 µM.
`N#Cc1ccnc(N2C(=O)CC[C@H]2C(=O)N(c2cncc(F)c2)[C@H](C(=O)NC2CC(F)(F)C2)c2ccccc2Cl)c1` [IVOSIDENIB] showed an AC50 [1] of over 30 µM.
For `C[C@H](Nc1ncnc2[nH]cnc12)c1cc2cccc(Cl)c2c(=O)n1-c1ccccc1` [DUVELISIB], the AC50 [2] was over 30 µM and the AC50 [12] was over 30 µM.
`Cc1c(C)c2c(c(C)c1O)CCC(C)(COc1ccc(CC3SC(=O)NC3=O)cc1)O2` (stereo not drawn) [TROGLITAZONE] was tested, and the AC50 [5] was over 30 µM, the AC50 [7] was over 30 µM and the AC50 [9] was over 30 µM.
Compound `CCOC(=O)[C@H](CCc1ccccc1)N[C@@H](C)C(=O)N1Cc2ccccc2C[C@H]1C(=O)O` has an AC50 [3] of over 10 µM, an AC50 [4] of over 10 µM and an AC50 [5] of over 30 µM. The AC50 [13] was over 10 µM, the AC50 [7] was over 30 µM and the AC50 [8] was over 10 µM. The AC50 [9] was over 30 µM and the AC50 [10] was over 10 µM.
